In brackets after ≈: the same amount, converted by molar mass. Like-named read-outs stand apart in the source and are kept apart here.
Columns and labels:
[1] = system: Mycobacterium avium 330/88; assay: In vitro antimycobacterial MIC, M. avium; format: cell-based
[2] = system: Mycobacterium tuberculosis 331/88 (H37Rv); assay: In vitro antimycobacterial MIC, M. tuberculosis; format: cell-based
[3] = system: Lichtheimia corymbifera 272; assay: Antifungal microdilution broth MIC, L. corymbifera; format: cell-based
Candida krusei E28 = assay: Antifungal microdilution broth MIC, C. krusei; format: cell-based; details: Pichia kudriavzevii
[4] = system: Enterococcus faecalis J 14365/08; assay: Antibacterial microdilution broth MIC, E. faecalis; format: cell-based
[5] = system: Staphylococcus aureus CCM 4516/08; assay: Antibacterial microdilution broth MIC, S. aureus; format: cell-based; details: 48 h incubation, read-out: MIC SA 48 h
Candida glabrata 20/I = assay: Antifungal microdilution broth MIC, C. glabrata; format: cell-based; details: Nakaseomyces glabratus, 48 h incubation, read-out: MIC CG 48 h
M. kansasii 6509/96 = assay: In vitro antimycobacterial MIC, M. kansasii clinical isolate; format: cell-based; details: Mycobacterium kansasii
Trichosporon asahii 1188 = assay: Antifungal microdilution broth MIC, T. asahii; format: cell-based
[6] = system: Aspergillus fumigatus 231; assay: Antifungal microdilution broth MIC, A. fumigatus; format: cell-based
[7] = system: Trichophyton interdigitale 445; assay: Antifungal microdilution broth MIC, T. interdigitale; format: cell-based
[8] = system: Staphylococcus epidermidis H 6966/08; assay: Antibacterial microdilution broth MIC, S. epidermidis; format: cell-based
[9] = system: Mycobacterium kansasii 235/80; assay: In vitro antimycobacterial MIC, M. kansasii 235/80; format: cell-based
[10] = system: yeasts (Candida sp., T. asahii); assay: Antifungal activity against yeasts; format: cell-based; details: read-out: MIC for yeasts
Candida tropicalis 156 = assay: Antifungal microdilution broth MIC, C. tropicalis; format: cell-based
[11] = system: Klebsiella pneumoniae D 11750/08
[12] = system: Escherichia coli CCM 4517; assay: Antibacterial microdilution broth MIC, E. coli; format: cell-based
[13] = system: Candida albicans ATCC 44859; assay: Antifungal microdilution broth MIC, C. albicans; format: cell-based; details: ATCC44859, 48 h incubation, read-out: MIC CA 48 h
[14] = system: Pseudomonas aeruginosa CCM 1961; assay: Antibacterial microdilution broth MIC, P. aeruginosa; format: cell-based; details: 48 h incubation, read-out: MIC PA 48 h
[15] = system: ESBL-positive Klebsiella pneumoniae J 14368/08
[16] = system: Klebsiella pneumoniae D 11750/08; assay: Antibacterial microdilution broth MIC, K. pneumoniae; details: 48 h incubation
[17] = 330/88, 336 h, 14 d incubation, read-out: MIC M. avium 330/88 14 d
[18] = 330/88, 504 h, 21 d incubation, read-out: MIC M. avium 330/88 21 d
[19] = 336 h, 14 d incubation, read-out: MIC Mtb. 331/88 14 d
[20] = 504 h, 21 d incubation, read-out: MIC Mtb. 331/88 21 d
[21] = 6509/96, 168 h, 7 d incubation, read-out: MIC M. kansasii 6509/96 7 d
[22] = 6509/96, 336 h, 14 d incubation, read-out: MIC M. kansasii 6509/96 14 d
[23] = 6509/96, 504 h, 21 d incubation, read-out: MIC M. kansasii 6509/96 21 d
[24] = Staphylococcus epidermidis, H6966/08, 48 h incubation, read-out: MIC SE 48 h
[25] = 235/80, 168 h, 7 d incubation, read-out: MIC M. kansasii 235/80 7 d
[26] = 235/80, 336 h, 14 d incubation, read-out: MIC M. kansasii 235/80 14 d
[27] = 235/80, 504 h, 21 d incubation, read-out: MIC M. kansasii 235/80 21 d
[28] = Pseudomonas aeruginosa, CCM1961

O=S(=O)(Nc1ncccn1)c1ccc(N=Cc2cc(Cl)cc(Br)c2O)cc1 [Compound 2n, 4-[(3-Bromo-5-chloro-2-hydroxybenzylidene)amino]-N-(pyrimidin-2-yl)benzenesulfonamide]
MIC [1, 17]: 250 µM (≈ 117 µg/mL)
MIC [1, 18]: 500 µM (≈ 234 µg/mL)
MIC [2, 19]: 125 µM (≈ 58.5 µg/mL)
MIC [2, 20]: 125 µM (≈ 58.5 µg/mL)
MIC ([3]; Lichtheimia corymbifera, 272, 48 h incubation, read-out: MIC LC 48 h): 500 µM (≈ 234 µg/mL)
MIC (Candida krusei E28; E28, 24 h, read-out: MIC CK 24 h): 62.5 µM (≈ 29.2 µg/mL)
MIC (Candida krusei E28; E28, 48 h, read-out: MIC CK 48 h): 62.5 µM (≈ 29.2 µg/mL)
MIC ([4]; Enterococcus faecalis, J14365/08, 48 h incubation, read-out: MIC EF 48 h): > 500 µM
MIC ([5]; Staphylococcus aureus, CCM4516): 31.2 µM (≈ 14.6 µg/mL)
MIC (Candida glabrata 20/I): 31.2 µM (≈ 14.6 µg/mL)
MIC (M. kansasii 6509/96; [21]): 62.5 µM (≈ 29.2 µg/mL)
MIC (M. kansasii 6509/96; [22]): 125 µM (≈ 58.5 µg/mL)
MIC (M. kansasii 6509/96; [23]): 125 µM (≈ 58.5 µg/mL)
MIC (Trichosporon asahii 1188; Trichosporon asahii, 1188, 24 h, read-out: MIC TA 24 h): 62.5 µM (≈ 29.2 µg/mL)
MIC (Trichosporon asahii 1188; Trichosporon asahii, 1188, 48 h, read-out: MIC TA 48 h): 62.5 µM (≈ 29.2 µg/mL)
MIC ([6]; Aspergillus fumigatus, 231, 48 h incubation, read-out: MIC AF 48 h): 250 µM (≈ 117 µg/mL)
MIC ([7]; Trichophyton interdigitale, 445, 72 h, read-out: MIC TI 72 h): 62.5 µM (≈ 29.2 µg/mL)
MIC ([7]; Trichophyton interdigitale, 445, 120 h, read-out: MIC TI 120 h): 62.5 µM (≈ 29.2 µg/mL)
MIC [8, 24]: 31.2 µM (≈ 14.6 µg/mL)
MIC [9, 25]: 125 µM (≈ 58.5 µg/mL)
MIC [9, 26]: 125 µM (≈ 58.5 µg/mL)
MIC [9, 27]: 250 µM (≈ 117 µg/mL)
MIC [10]: 31.2 to 125 µM (≈ 14.6 to 58.5 µg/mL)
MIC (Candida tropicalis 156; Candida tropicalis, 156, 24 h, read-out: MIC CT 24 h): 62.5 µM (≈ 29.2 µg/mL)
MIC (Candida tropicalis 156; Candida tropicalis, 156, 48 h, read-out: MIC CT 48 h): 62.5 µM (≈ 29.2 µg/mL)
MIC KP 24 h ([11]; 24 h): >500 µM
MIC KP 48 h ([11]; 48 h): >500 µM
MIC ([12]; Escherichia coli, CCM4517, 48 h incubation, read-out: MIC EC 48 h): 500 µM (≈ 234 µg/mL)
MIC [13]: 31.2 µM (≈ 14.6 µg/mL)
MIC [14, 28]: > 500 µM
MIC KP-E 24 h ([15]; 24 h): 500 µM (≈ 234 µg/mL)
MIC KP-E 48 h ([15]; 48 h): 500 µM (≈ 234 µg/mL)

O=S(=O)(Nc1ncccn1)c1ccc(N=Cc2cc(I)cc(I)c2O)cc1 [Compound 2p, 4-[(2-Hydroxy-3,5-diiodobenzylidene)amino]-N-(pyrimidin-2-yl)benzenesulfonamide]
MIC [1, 17]: 250 µM (≈ 152 µg/mL)
MIC [1, 18]: 500 µM (≈ 303 µg/mL)
MIC [2, 19]: 250 µM (≈ 152 µg/mL)
MIC [2, 20]: 250 µM (≈ 152 µg/mL)
MIC ([3]; Lichtheimia corymbifera, 272, 24 h, read-out: MIC LC 24 h): 62.5 µM (≈ 37.9 µg/mL)
MIC ([3]; Lichtheimia corymbifera, 272, 48 h, read-out: MIC LC 48 h): 62.5 µM (≈ 37.9 µg/mL)
MIC (Candida krusei E28; E28, 48 h incubation, read-out: MIC CK 48 h): 7.81 µM (≈ 4.73 µg/mL)
MIC ([4]; Enterococcus faecalis, J14365/08, 24 h, read-out: MIC EF 24 h): 125 µM (≈ 75.8 µg/mL)
MIC ([4]; Enterococcus faecalis, J14365/08, 48 h, read-out: MIC EF 48 h): 125 µM (≈ 75.8 µg/mL)
MIC ([5]; Staphylococcus aureus, CCM4516): 7.81 µM (≈ 4.73 µg/mL)
MIC (Candida glabrata 20/I): 3.9 µM (≈ 2.36 µg/mL)
MIC KP 48 h [16]: 125 µM (≈ 75.8 µg/mL)
MIC (M. kansasii 6509/96; [21]): 62.5 µM (≈ 37.9 µg/mL)
MIC (M. kansasii 6509/96; [22]): 125 µM (≈ 75.8 µg/mL)
MIC (M. kansasii 6509/96; [23]): 250 µM (≈ 152 µg/mL)
MIC (Trichosporon asahii 1188; Trichosporon asahii, 1188, 48 h incubation, read-out: MIC TA 48 h): 3.9 µM (≈ 2.36 µg/mL)
MIC ([6]; Aspergillus fumigatus, 231, 24 h, read-out: MIC AF 24 h): 62.5 µM (≈ 37.9 µg/mL)
MIC ([6]; Aspergillus fumigatus, 231, 48 h, read-out: MIC AF 48 h): 62.5 µM (≈ 37.9 µg/mL)
MIC ([7]; Trichophyton interdigitale, 445, 72 h incubation, read-out: MIC TI 72 h): 15.6 µM (≈ 9.47 µg/mL)
MIC ([7]; Trichophyton interdigitale, 445, 120 h incubation, read-out: MIC TI 120 h): 15.6 µM (≈ 9.47 µg/mL)
MIC [8, 24]: 7.81 µM (≈ 4.73 µg/mL)
MIC ([8]; Staphylococcus epidermidis, H6966/08, incubation time not given, read-out: MIC for S. epidermidis): 7.81 µM (≈ 4.73 µg/mL)
MIC [9, 25]: 125 µM (≈ 75.8 µg/mL)
MIC [9, 26]: 250 µM (≈ 152 µg/mL)
MIC [9, 27]: 250 µM (≈ 152 µg/mL)
MIC (Candida tropicalis 156; Candida tropicalis, 156, 48 h incubation, read-out: MIC CT 48 h): 7.81 µM (≈ 4.73 µg/mL)
MIC ([12]; Escherichia coli, CCM4517, 24 h, read-out: MIC EC 24 h): 125 µM (≈ 75.8 µg/mL)
MIC ([12]; Escherichia coli, CCM4517, 48 h, read-out: MIC EC 48 h): 125 µM (≈ 75.8 µg/mL)
MIC [13]: 3.9 µM (≈ 2.36 µg/mL)
MIC [14, 28]: 500 µM (≈ 303 µg/mL)
MIC KP-E 48 h ([15]; 48 h incubation): 125 µM (≈ 75.8 µg/mL)

Bacitracin [reference compound]
MIC ([4]; 48 h incubation, read-out: MIC EF 48 h): 62.5 µM
MIC [5]: 15.62 µM
MIC KP 48 h [16]: >500 µM
MIC ([8]; 48 h incubation, read-out: MIC SE 48 h): 31.25 µM
MIC ([12]; 48 h incubation, read-out: MIC EC 48 h): >500 µM
MIC [14]: >500 µM
MIC KP-E 48 h ([15]; 48 h incubation): >500 µM
